Assay results from publication PMC7759869 (Biomedicines, 2020).
Where two headings read alike, the source gives them in different places. Marks after values point to notes of the source that are not given here.

Key:
[1] = molecular target: cabozantinib oxidation in pooled human liver microsomes (Homo sapiens, UniProt P08684); assay: Inhibition study: effect of CYP inhibitors on cabozantinib oxidation in pooled human liver microsomes; details: pooled human liver microsomes, 50 µM cabozantinib
Method: (§1) Inhibition studies in pooled human liver microsomes were conducted with six inhibitors. […] The IC50 values for employed inhibitors were determined by the procedure described previously. […] Then, mixtures were incubated for a further 20 min at 37 °C.

human liver microsomes [2] = assay: Oxidation of cabozantinib by hepatic microsomes of individual human donors (HPLC of metabolites); type: in vitro ADME; details: 50 µM cabozantinib, 20 min
Source text: (§2) Cabozantinib was from MedChemExpress (Monmouth Junction, NJ, USA). Standard of cabozantinib N-oxide was purchased from Toronto Research Chemicals (Toronto, Canada). Ketoconazole, NADPH and other chemicals were all purchased from Merck (Darnstadt, Germany). The purity of all chemicals met the standards of American Chemical Society, unless otherwise noted. Male human hepatic microsomes (pooled sample) (sample LOT: 3043885) were from Gentest Corp. (Woburn, MA, USA). Microsomes from livers of twelve human donors were obtained from Gentest Corp. (Woburn, MA, USA) (Lot. no. HG43-1, HG103, HG74, HG93, HG24, HG27, HG23, HG32, HK31, HK34, HG03 and HG42). Each human microsomal sample was characterized for CYP, FMO, total protein contents and specific CYP activities by Gentest Corp. and reanalyzed by us by assays described in the protocols of Gentest Corp. Our data were similar to those reported by Gentest Corp. (Table 1). Human recombinant enzymes were used in the forms of Supersomes™ and obtained from Corning (Corning, NY, USA). In Supersomes™, microsomal fractions were isolated from insect cells that were transfected with baculovirus constructs containing cDNA of human CYP enzymes (CYP1A1/2, 1B1, 2A6, 2B6, 2C8/9/18/19/, 2D6, 2E1, 3A4). The Supersomes™ also express NADPH:CYP oxidoreductase (POR). However, because they are microsomes (particles of broken endoplasmic reticulum), other enzymes (proteins) of the endoplasmic reticulum membrane (like NADH:cytochrome b5 reductase and cytochrome b5) are also expressed at basal levels in these Supersomes™. We also utilized Supersomes™, which overexpressed cytochrome b5, in a molar ratio of CYP to cytochrome b5 of 1 to 5. In Supersomes™, where cytochrome b5 was not overexpressed (see above), pure cytochrome b5 was added to reach a molar ratio of CYP to cytochrome b5 of 1 to 5. Reconstitution of Supersomes™ with purified cytochrome b5 was performed as described previously. Human recombinant FMOs and AO were also used in the forms of Supersomes™ (Gentest Corp., Woburn, MA, USA). These microsomal fractions were isolated from insect cells that are transfected with baculovirus constructs containing cDNA of human FMO1, FMO3, FMO5 or AO enzymes.
(§3) The reaction was initiated by adding NADPH. In control incubations, either microsomes or CYP (FMO, AO) or NADPH were omitted. […] The reaction was stopped by extraction with ethyl acetate (2 × 1 mL). […] Cabozantinib metabolites separated by HPLC were characterized by mass spectroscopy (see further details below).

CYP3A4 = CYP3A4 (Homo sapiens, UniProt P08684); assay: Kinetics of cabozantinib oxidation by recombinant CYP3A4 (Supersomes); type: in vitro ADME; set-up: purchased Corning (Corning, NY, USA); host or cells: insect cells (baculovirus); details: formation of the metabolite from cabozantinib by CYP3A4 without cyt b5
Source text: Cabozantinib was from MedChemExpress (Monmouth Junction, NJ, USA). Standard of cabozantinib N-oxide was purchased from Toronto Research Chemicals (Toronto, Canada). Ketoconazole, NADPH and other chemicals were all purchased from Merck (Darnstadt, Germany). The purity of all chemicals met the standards of American Chemical Society, unless otherwise noted. Male human hepatic microsomes (pooled sample) (sample LOT: 3043885) were from Gentest Corp. (Woburn, MA, USA). Microsomes from livers of twelve human donors were obtained from Gentest Corp. (Woburn, MA, USA) (Lot. no. HG43-1, HG103, HG74, HG93, HG24, HG27, HG23, HG32, HK31, HK34, HG03 and HG42). Each human microsomal sample was characterized for CYP, FMO, total protein contents and specific CYP activities by Gentest Corp. and reanalyzed by us by assays described in the protocols of Gentest Corp. Our data were similar to those reported by Gentest Corp. (Table 1). Human recombinant enzymes were used in the forms of Supersomes™ and obtained from Corning (Corning, NY, USA). In Supersomes™, microsomal fractions were isolated from insect cells that were transfected with baculovirus constructs containing cDNA of human CYP enzymes (CYP1A1/2, 1B1, 2A6, 2B6, 2C8/9/18/19/, 2D6, 2E1, 3A4). The Supersomes™ also express NADPH:CYP oxidoreductase (POR). […]

human liver microsomes [3] = assay: Oxidation of cabozantinib by hepatic microsomes of individual human donors (HPLC of metabolites); type: in vitro ADME; details: 50 µM cabozantinib, 20 min; remark: listed apart in the source
human liver microsomes [4] = assay: Correlation of CYP- and FMO-linked catalytic activities with amounts of cabozantinib metabolites formed in microsomes; type: in vitro ADME; details: twelve human microsomal samples; for Correlation coefficient (r) with CYP2C19 activity: (S)-Mephenytoin-4′-hydroxylase; for Correlation coefficient (r) with CYP2B6 activity: (S)-Mephenytoin-N-demethylase; for Correlation coefficient (r) with CYP2D6 activity: Buferalol-1′-hydroxylase; for Correlation coefficient (r) with CYP2E1 activity: Chlorzoxazone-6-hydroxylase; for Correlation coefficient (r) with CYP2A6 activity: Coumarine-7-hydroxylase; for Correlation coefficient (r) with CYP2C9 activity: Diclofenac-4′-hydroxylase; for Correlation coefficient (r) with CYP4A11 activity: Lauric acid-12-hydroxylase; for Correlation coefficient (r) with FMO activity: Methyl-p-tolyl sulfide oxidase; for Correlation coefficient (r) with CYP2C8 activity: Paclitaxel-6α-hydroxylase; for Correlation coefficient (r) with CYP1A2 activity: Phenacetin-O-deethylase; for Correlation coefficient (r) with Total CYPs: amount of metabolite formed vs total CYP content
Method: Data are expressed as mean ± SD. Data were analyzed using GraphPad Prism 7 (San Diego, CA, USA) using ANOVA with post-hoc Tukey HSD Test. All p-values are two-tailed and considered significant at the 0.05 level. […] Correlation coefficients (r) were based on a sample size of twelve for human microsomes. All p-values are two-tailed and considered significant at the 0.05 level.
To clarify these correlations, multivariate analysis was used to investigate the dependence of metabolite formation on these CYP activities. Activities of CYP2A6, -2B6 and -2C8 in each microsomal sample were combined in pairs with the activities of CYP3A4 to see if any combination of the activities led to an improvement in the correlation with CYP3A4.

CYP3A4 + cyt b5 = molecular target: T1, CYP3A4 + cyt b5 (Homo sapiens, UniProt P08684); assay: Cabozantinib oxidation by recombinant CYP3A4 in the presence of cyt b5 (Supersomes); type: in vitro ADME; details: for VMax: formation of the metabolite from cabozantinib by CYP3A4 + cyt b5
T1 construct: purchased Corning (Corning, NY, USA); host or cells: insect cells (baculovirus)
Source text: as §2, §3

CYPs in human liver = assay: Contributions of CYP enzymes to formation of cabozantinib metabolites in human livers; type: in vitro ADME; details: calculated from velocities with cyt b5 and CYP expression levels in human liver
MET = details: read-out: IC50 for MET; estimated; cited from earlier work
RET = details: estimated; cited from earlier work
VEGFR2 = details: read-out: IC50 for VEGFR2; estimated; cited from earlier work
[5] = molecular target: CYP3A (cabozantinib oxidation: formation of cabozantinib N-oxide) (Homo sapiens, UniProt P08684); assay: Inhibition study: effect of CYP inhibitors on cabozantinib oxidation in pooled human liver microsomes; details: human
Method: as §1

[6] = molecular target: CYP3A (cabozantinib oxidation: formation of desmethyl cabozantinib) (Homo sapiens, UniProt P08684); assay: as above; details: human
Method: as §1

[7] = molecular target: CYP3A (cabozantinib oxidation: formation of monohydroxy cabozantinib) (Homo sapiens, UniProt P08684); assay: as above; details: human
Method: as §1

[8] = human liver microsomes sample HG03
[9] = human liver microsomes sample HG24
[10] = human liver microsomes sample HG32
[11] = human liver microsomes sample HG42
[12] = human liver microsomes sample HG43
[13] = human liver microsomes sample HG74
[14] = human liver microsomes sample HG93
[15] = human liver microsomes sample HG103
[16] = human liver microsomes sample HK31
[17] = human liver microsomes sample HK34
[18] = human liver microsomes sample HK23
[19] = human liver microsomes sample HK27

cabozantinib oxidation in pooled human liver microsomes, sequence (P08684 2-503): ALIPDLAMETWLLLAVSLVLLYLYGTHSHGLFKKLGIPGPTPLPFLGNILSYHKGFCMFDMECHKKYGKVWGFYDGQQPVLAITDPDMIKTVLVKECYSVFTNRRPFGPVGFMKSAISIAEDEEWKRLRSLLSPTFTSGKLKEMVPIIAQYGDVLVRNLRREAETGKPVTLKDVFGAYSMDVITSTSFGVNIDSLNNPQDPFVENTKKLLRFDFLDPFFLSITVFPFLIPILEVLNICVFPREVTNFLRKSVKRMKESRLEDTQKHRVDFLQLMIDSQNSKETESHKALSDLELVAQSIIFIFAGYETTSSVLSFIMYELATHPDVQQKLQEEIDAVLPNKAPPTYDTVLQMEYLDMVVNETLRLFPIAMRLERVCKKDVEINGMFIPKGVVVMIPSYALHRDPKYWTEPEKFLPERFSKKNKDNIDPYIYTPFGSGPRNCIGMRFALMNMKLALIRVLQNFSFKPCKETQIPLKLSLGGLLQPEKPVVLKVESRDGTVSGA
T1 sequence (P08684 whole entry): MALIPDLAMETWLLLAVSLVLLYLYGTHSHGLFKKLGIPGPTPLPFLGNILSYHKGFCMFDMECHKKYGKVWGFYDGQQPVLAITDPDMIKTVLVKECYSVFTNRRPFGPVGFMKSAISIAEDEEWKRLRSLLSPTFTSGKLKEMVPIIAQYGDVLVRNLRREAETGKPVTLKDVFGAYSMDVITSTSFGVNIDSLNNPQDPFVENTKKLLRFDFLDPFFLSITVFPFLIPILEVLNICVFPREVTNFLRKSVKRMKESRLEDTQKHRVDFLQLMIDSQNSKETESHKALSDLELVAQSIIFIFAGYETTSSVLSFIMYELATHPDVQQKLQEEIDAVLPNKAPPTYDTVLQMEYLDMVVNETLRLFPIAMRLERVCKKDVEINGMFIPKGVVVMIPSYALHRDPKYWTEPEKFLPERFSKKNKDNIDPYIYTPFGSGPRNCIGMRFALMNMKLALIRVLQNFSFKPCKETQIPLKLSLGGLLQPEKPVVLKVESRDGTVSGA
CYP3A4, sequence (P08684 whole entry): as above
CYP3A (cabozantinib oxidation: formation of monohydroxy cabozantinib), sequence (P08684 2-503): as the sequence (P08684 2-503) above
CYP3A (cabozantinib oxidation: formation of cabozantinib N-oxide), sequence (P08684 2-503): as above
CYP3A (cabozantinib oxidation: formation of desmethyl cabozantinib), sequence (P08684 2-503): as above

SMILES	Amounts of cabozantinib metabolites (human liver microsomes [2]; [8]) [peak area/incubation time]	Amounts of cabozantinib metabolites (human liver microsomes [2]; [9]) [peak area/incubation time]	Amounts of cabozantinib metabolites (human liver microsomes [2]; [10]) [peak area/incubation time]	Amounts of cabozantinib metabolites (human liver microsomes [2]; [11]) [peak area/incubation time]	Amounts of cabozantinib metabolites (human liver microsomes [2]; [12]) [peak area/incubation time]	Amounts of cabozantinib metabolites (human liver microsomes [2]; [13]) [peak area/incubation time]	Amounts of cabozantinib metabolites (human liver microsomes [2]; [14]) [peak area/incubation time]	Amounts of cabozantinib metabolites (human liver microsomes [2]; [15]) [peak area/incubation time]	Amounts of cabozantinib metabolites (human liver microsomes [2]; [16]) [peak area/incubation time]	Amounts of cabozantinib metabolites (human liver microsomes [2]; [17]) [peak area/incubation time]	VMax (CYP3A4) [peak area/min/nmol CYP]	Amounts of cabozantinib metabolites (human liver microsomes [3]; [18]) [peak area/incubation time]	Amounts of cabozantinib metabolites (human liver microsomes [3]; [19]) [peak area/incubation time]	Correlation coefficient (r) with CYP2C19 activity (human liver microsomes [4])	Correlation coefficient (r) with CYP2B6 activity (human liver microsomes [4])	Correlation coefficient (r) with CYP2D6 activity (human liver microsomes [4])	Correlation coefficient (r) with CYP2E1 activity (human liver microsomes [4])	Correlation coefficient (r) with CYP2A6 activity (human liver microsomes [4])	Correlation coefficient (r) with CYP2C9 activity (human liver microsomes [4])	Correlation coefficient (r) with CYP4A11 activity (human liver microsomes [4])	also measured
Cc1ccc(-c2c(-c3nn(C)c4ncnc(N5CC[C@H](N6CCCCC6)C5)c34)cnn2C)cc1 [CYP3cide]																					IC50 ([1]; read-out: IC50 for inhibition of formation of cabozantinib N-oxide): < 10 nM; IC50 ([1]; read-out: IC50 for inhibition of formation of desmethyl cabozantinib): < 10 nM; IC50 ([1]; read-out: IC50 for inhibition of formation of monohydroxy cabozantinib): 1120 nM
COc1cc2c(Oc3ccc(NC(=O)C4(C(=O)Nc5ccc(F)cc5)CC4)cc3)ccnc2cc1O [M2, desmethyl cabozantinib]	0.335	0.149	0.185	0.329	0.625	0.256	0.371	0.144	0.377	0.305	1.44 ± 0.03	0.130	0.467	0.033	0.695 *	−0.015	0.140	0.841 ***	0.086	0.193	Correlation coefficient (r) with FMO activity (human liver microsomes [4]): 0.315; Correlation coefficient (r) with CYP2C8 activity (human liver microsomes [4]): 0.654 *; Correlation coefficient (r) with CYP1A2 activity (human liver microsomes [4]): 0.280; Correlation coefficient (r) with Total CYPs (human liver microsomes [4]): 0.794 **; VMax (CYP3A4 + cyt b5): 5.70 ± 0.24 peak area/min/nmol CYP; Contribution of CYPs other than CYP3A4 to formation of the metabolite in human liver (CYPs in human liver): less than 1%
COc1cc2c(Oc3ccc(NC(=O)C4(C(=O)Nc5ccc(F)cc5)CC4)cc3)cc[n+]([O-])c2cc1OC [M3, cabozantinib N-oxide]	1.672	0.752	1.338	1.609	3.491	1.106	1.935	0.644	1.537	1.359	1.54 ± 0.04	0.607	2.228	−0.021	0.776 **	−0.043	0.030	0.728 **	0.130	0.223	IC50 (MET): 190 nM; IC50 (RET): > 1000 nM; Correlation coefficient (r) with FMO activity (human liver microsomes [4]): 0.341; Correlation coefficient (r) with CYP2C8 activity (human liver microsomes [4]): 0.737 **; Correlation coefficient (r) with CYP1A2 activity (human liver microsomes [4]): 0.216; Correlation coefficient (r) with Total CYPs (human liver microsomes [4]): 0.811 **; IC50 (VEGFR2): 140 nM; Increase of oxidation / metabolite formation by co-expression of cyt b5 with CYP3A4 (CYP3A4 + cyt b5; Supersomes with cyt b5 vs without, 50 µM cabozantinib): 4.6 fold; VMax (CYP3A4 + cyt b5): 9.96 ± 0.92 peak area/min/nmol CYP; Contribution of CYPs other than CYP3A4 to formation of the metabolite in human liver (CYPs in human liver): less than 1%
CC(=O)N1CCN(c2ccc(OCC3COC(Cn4ccnc4)(c4ccc(Cl)cc4Cl)O3)cc2)CC1 (centres unmarked) [ketoconazole]																					IC50 at 20 min [5]: < 10 nM; IC50 at 20 min [6]: < 10 nM; IC50 at 20 min [7]: < 10 nM
